We go through 21 compounds from patent US11555036B2, “FGFR4 inhibitor, preparation method therefor and pharmaceutical use thereof” (Abbisko Therapeutics Co., Ltd., priority 2016, dated 2023).

Test [1] deals with FGFR4 (Homo sapiens, UniProt P22455). Nature of the test: FGFR4 Caliper Assay (in vitro biochemical kinase analysis of FGFR4). The following applies: read-out: Enzymatic activity FGFR4 IC50. The method in brief:
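Kinase reaction at 30° C for 40 min in 50 mM HEPES pH 7.5, 16 mM MgCl2, 1 mM DTT, 0.6% DMSO, stopped with EDTA. Phosphorylated and unphosphorylated fluorescent peptides separated by Caliper microfluidic mobility shift. IC50 by non-linear regression of percent inhibition.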

Test [2] concerns Huh7 hepatocellular carcinoma cells. Nature of the test: FGFR4 cell proliferation experiment, Cell Titer Glo (CTG). The following applies: HuH-7 cells, 3 days; for pIC50: concentration leading to absolute half growth inhibition; for pEC50: concentration leading to half maximal growth inhibition. The test is classed as cell-based. In short, it runs like this: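 Cells treated with 5-fold serial dilutions starting at 10 μM for 3 days at 37° C, 5% CO2. Proliferation/survival quantified as cellular ATP by CellTiter-Glo luminescence.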
In general terms: In ATP-based viability assays light output follows the ATP content of the culture.

pEC50, pIC50: −log10 of the molar value. A value given as a limit tells only on which side of the number the result lay.

FGFR4, sequence (P22455 22-802): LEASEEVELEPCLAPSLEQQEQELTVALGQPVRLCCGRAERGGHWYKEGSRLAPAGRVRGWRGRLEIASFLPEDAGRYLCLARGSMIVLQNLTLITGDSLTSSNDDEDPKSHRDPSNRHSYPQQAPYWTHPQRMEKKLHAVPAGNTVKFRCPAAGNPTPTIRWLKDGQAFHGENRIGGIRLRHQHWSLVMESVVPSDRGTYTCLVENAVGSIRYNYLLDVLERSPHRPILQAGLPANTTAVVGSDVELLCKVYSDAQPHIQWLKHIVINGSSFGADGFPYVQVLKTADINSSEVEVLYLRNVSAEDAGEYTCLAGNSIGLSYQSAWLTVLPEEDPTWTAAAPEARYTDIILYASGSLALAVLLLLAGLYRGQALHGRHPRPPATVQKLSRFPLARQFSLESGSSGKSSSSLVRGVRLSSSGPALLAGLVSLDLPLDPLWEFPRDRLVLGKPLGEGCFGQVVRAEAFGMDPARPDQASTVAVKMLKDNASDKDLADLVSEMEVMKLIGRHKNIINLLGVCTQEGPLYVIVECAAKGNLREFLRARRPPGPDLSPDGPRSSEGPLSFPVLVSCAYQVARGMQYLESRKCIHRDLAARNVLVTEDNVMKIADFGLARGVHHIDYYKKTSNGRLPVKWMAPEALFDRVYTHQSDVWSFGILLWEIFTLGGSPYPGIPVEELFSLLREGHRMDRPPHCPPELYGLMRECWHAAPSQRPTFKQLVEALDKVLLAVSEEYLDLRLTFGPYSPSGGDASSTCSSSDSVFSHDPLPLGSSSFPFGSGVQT

In the case of `C=CC(=O)N[C@H]1COC[C@H]1Nc1ncc2cc(-c3c(Cl)c(OC)cc(OC)c3Cl)nc(NCC(CO)(CO)CO)c2n1` [Example 758, N-((3R,4S)-4-((6-(2,6-dichloro-3,5-dimethoxypehnyl)-8-((3-hydroxy-2,2-bis(hydroxymethyl)propyl)amino)py-rido[3,4-d]pyrimidin-2-yl)amino)tetra-hydrofuran-3-yl)acrylamide], the pIC50 – broadly, −log10 of the IC50, conventionally taken in molar units – in test [1] was 8.23. In test [2] (Homo sapiens, Huh-7, 72 h), the pIC50 was 8.04 and the pEC50 – broadly, the negative decadic logarithm of the EC50, by convention in mol/L – is 8.24.

Turning to `C=CC(=O)N[C@H]1COC[C@H]1Nc1ncc2cc(-c3c(Cl)c(OC)cc(OC)c3Cl)nc(OC)c2n1` [Example 423, N-((3R,4S)-4-((6-(2,6-dichloro-3,5-di-methoxyphenyl)-8-methoxypyrido[3,4-d]pyrimidin-2-yl)amino)tetrahydro-furan-3-yl)acrylamide], the pIC50 in test [1] is 7.50. In test [2] (Homo sapiens, Huh-7, 72 h), this compound gave a pIC50 of 6.46 and a pEC50 of 7.01.

As for `C=CC(=O)N[C@H]1CCOC[C@H]1Nc1ncc2cc(-c3c(F)c(OC)cc(OC)c3F)nc(NCC)c2n1` [Example 787, N-((3S,4S)-3-((6-(2,6-difluoro-3,5-dimethoxyphenyl)-8-(ethylamino)pyri-do[3,4-d]pyrimidin-2-yl)amino)tetra-hydro-2H-pyran-4-yl)acrylamide], the pIC50 in test [1] is 7.35; in test [2] (Homo sapiens, Huh-7, 72 h) it was 6.99. Moreover, in test [2] (Homo sapiens, Huh-7, 72 h), the pEC50 was 7.07.

On to `C=CC(=O)NCc1cc2c(cn1)cc(-c1c(Cl)c(OC)cc(OC)c1Cl)c(=O)n2C` [Example 730, N-((3-(2,6-dichloro-3,5-dimethoxyphenyl)-1-methyl-2-oxo-1,2-dihydro-1,6-naphthyridin-7-yl)methyl)acrylamide], for which the pIC50 in test [1] is 6.94; in test [2] (Homo sapiens, Huh-7, 72 h), 6.71. This compound also had a pEC50 in test [2] (Homo sapiens, Huh-7, 72 h) of 6.79.

As for `C=CC(=O)N[C@H]1COC[C@H]1Nc1ncc2cc(-c3c(F)c(OC)cc(OC)c3F)nc(N3CCC(OC)CC3)c2n1` [Example 694, N-((3R,4S)-4-((6-(2,6-difluoro-3,5-dimethoxyphenyl)-8-(4-methoxypiper-idin-1-yl)pyrido[3,4-d]pyrimidin-2-yl)amino)tetrahydrofuran-3-yl)acryl-amide], in test [1], the pIC50 was 8.32. In test [2] (Homo sapiens, Huh-7, 72 h), this compound showed a pIC50 of 7.92 and a pEC50 of 8.00.

For `C=CC(=O)N[C@H]1COC[C@H]1Nc1ncc2cc(-c3c(Cl)c(OC)cc(OC)c3Cl)nc(NCCNS(C)(=O)=O)c2n1` [Example 430, N-((3R,4S)-4-((6-(2,6-dichloro-3,5-dimethoxyphenyl)-8-((2-(methyl-sulfonamido)ethyl)a-mino)pyrido[3,4-d]pyri-midin-2-yl)amino)tetrahydrofuran-3-yl)acrylamide], the pIC50 in test [1] is 7.72. In test [2] (Homo sapiens, Huh-7, 72 h), this compound gave a pIC50 of 7.03 and a pEC50 of 7.49.

Take “N-((3S,4S)-3-((6-(2,6-dichloro-3,5-di- methoxyphenyl)-8-(methylamino)py- rido[3,4-d]pyrimidin-2-yl)amino)tetra- hydro-2H-pyran-4-yl)acrylamide [Example 510]”: the pIC50 is 7.54 in test [1] and 6.94 in test [2]. Moreover, in test [2], the pEC50 is 7.12.

In the case of `C=CC(=O)N[C@H]1COC[C@H]1Nc1ncc2cc(-c3cccc(OC)c3F)nc(NC)c2n1` [Example 770, N-((3R,4S)-4-((6-(2-fluoro-3-meth-oxyphenyl)-8-(methylamino)pyrido[3,4-d]pyrimidin-2-yl)amino)tetrahydro-furan-3-yl)acrylamide], the pIC50 in test [1] was 5.62. Besides, in test [2] (Homo sapiens, Huh-7, 72 h), the pIC50 was less than 5.00 and the pEC50 was less than 5.00.

Turning to `C=CC(=O)N[C@H]1COC[C@H]1Nc1ncc2cc(-c3c(Cl)c(OC)cc(OC)c3Cl)nc(N3CC(CO)(CO)C3)c2n1` [Example 759, N-((3R,4S)-4-((8-(3,3-bis(hydroxy-methyl)azetidin-1-yl)-6-(2,6-dichloro-3,5-dimethoxyphenyl)pyrido[3,4-d]py-rimidin-2-yl)amino)tetrahydrofuran-3-yl)acrylamide], the pIC50 in test [1] is 8.24. In test [2] (Homo sapiens, Huh-7, 72 h), this compound had a pIC50 of 7.21 and a negative-log EC50 (pEC50) of 7.37.

`C=CC(=O)N[C@H]1COC[C@H]1Nc1ncc2cc(-c3c(F)c(OC)cc(OC)c3F)nc(NCC)c2n1` [Example 767, N-((3R,4S)-4-((6-(2,6-difluoro-3,5-dimethoxyphenyl)-8-(ethylamino)pyri-do[3,4-d]pyrimidin-2-yl)amino)tetra-hydrofuran-3-yl)acrylamide]: the pIC50 in test [1] was 8.15. In test [2] (Homo sapiens, Huh-7, 72 h), this compound gave a pIC50 of 7.35 and a negative-log EC50 (pEC50) of 7.62.

With `C=CC(=O)N[C@H]1COC[C@H]1Nc1ncc2cc(-c3c(F)c(OC)cc(OC)c3F)nc(N3CCOCC3)c2n1` [Example 687, N-((3R,4S)-4-((6-(2,6-difluoro-3,5-dimethoxyphenyl)-8-morpholino-pyrido[3,4-d]pyrimidin-2-yl)a-mino)tetrahydrofuran-3-yl)acrylamide], the pIC50 in test [1] was 8.20. For the same compound, in test [2] (Homo sapiens, Huh-7, 72 h), the pIC50 is 8.00 and the pEC50 was 8.16.

As for `C=CC(=O)N[C@H]1COC[C@H]1Nc1ncc2cc(-c3c(F)c(OC)cc(OC)c3F)nc(N3CC(F)(F)C3)c2n1` [Example 768, N-((3R,4S)-4-((6-(2,6-difluoro-3,5-dimethoxyphenyl)-8-(3,3-difluoro-azetidin-1-yl)pyrido[3,4-d]pyrimi-din-2-yl)amino)tetrahydro-furan-3-yl)acrylamide], the negative logarithm of the IC50 (pIC50) in test [1] was 8.40; in test [2] (Homo sapiens, Huh-7, 72 h), 7.90. Moreover, the pEC50 in test [2] (Homo sapiens, Huh-7, 72 h) was 8.00.

Take `C=CC(=O)N[C@H]1COC[C@H]1Nc1ncc2cc(-c3c(Cl)c(OC)cc(OC)c3Cl)nc(N3CC(OC)C3)c2n1` [Example 658, N-((3R,4S)-4-((6-(2,6-dichloro-3,5-dimethoxyphenyl)-8-(3-methoxyazeti-din-1-yl)pyrido[3,4-d]pyrimidin-2-yl)amino)tetrahydrofuran-3-yl)acryl-amide]: the pIC50 is 8.32 in test [1] and 7.82 in test [2] (Homo sapiens, Huh-7, 72 h). Moreover, in test [2] (Homo sapiens, Huh-7, 72 h), the pEC50 was 7.94.

On to `C=CC(=O)Nc1cc(N2CCN(C)CC2)cc(C)c1Nc1cc2c(=O)n(C)c(-c3c(Cl)c(OC)cc(OC)c3Cl)nc2cn1` [Example 75, N-(2-((2-(2,6-dichloro-3,5-dimethoxyphenyl)-3-methyl-4-oxo-3,4-dihydropyrido [3,4-d]pyrimidin-6-yl)amino)-3-methyl-5-(4-methyl-piperazin-1-yl)phenyl) acrylamide], for which, in test [1], the negative logarithm of the IC50 (pIC50) is 6.61. In test [2] (Homo sapiens, Huh-7, 72 h), this compound showed a pIC50 of less than 5.00 and a pEC50 of less than 5.00.

Take `C=CC(=O)N[C@H]1COC[C@H]1Nc1ncc2cc(-c3c(Cl)c(OC)cc(OC)c3Cl)nc(N3CCC3)c2n1` [Example 657, N-((3R,4S)-4-((8-(azetidin-1-yl)-6-(2,6-dichloro-3,5-dimethoxyphenyl)py-rido[3,4-d]pyrimidin-2-yl)amino)tetra-hydrofuran-3-yl)acrylamide]: the negative logarithm of the IC50 (pIC50) in test [1] was 8.19. For the same compound, in test [2] (Homo sapiens, Huh-7, 72 h), the pIC50 is 7.88 and the pEC50 was 8.02.

Take `C=CC(=O)N[C@H]1CCOC[C@H]1Nc1ncc2cc(-c3c(F)c(OC)cc(OC)c3F)nc(N3CC(OC)C3)c2n1` [Example 775, N-((3S,4S)-3-((6-(2,6-difluoro-3,5-dimethoxyphenyl)-8-(3-methoxyazetidin-1-yl)pyrido[3,4-d]pyrimidin-2-yl)amino)tetrahydro-2H-pyran-4-yl)acrylamide]: in test [1], the pIC50 is 8.05. For the same compound, in test [2] (Homo sapiens, Huh-7, 72 h), the pIC50 was 7.56 and the pEC50 was 7.68.

Turning to `C=CC(=O)N[C@H]1COC[C@H]1Nc1ncc2cc(-c3c(Cl)c(OC)cc(OC)c3Cl)nc(N)c2n1` [Example 765, N-((3R,4S)-4-((8-amino-6-(2,6-di-chloro-3,5-dimethoxyphenyl)pyrido[3,4-d]pyrimidin-2-yl)amino)tetrahydro-furan-3-yl)acrylamide], the pIC50 in test [1] was 6.80; in test [2] (Homo sapiens, Huh-7, 72 h), 6.18. In test [2] (Homo sapiens, Huh-7, 72 h), this compound showed a pEC50 of 6.38.

With `C=CC(=O)N[C@H]1CCOC[C@H]1Nc1ncc2cc(-c3c(F)c(OC)cc(OC)c3F)nc(N3CCC(OC)C3)c2n1` (stereo partly drawn) [Example 794, N-((3S,4S)-3-((6-(2,6-difluoro-3,5-dimethoxyphenyl)-8-(3-methoxy-pyrrolidin-1-yl)pyrido[3,4-d]py-rimidin-2-yl)amino)tetrahydro-2H-pyran-4-yl)acrylamide], in test [1], the pIC50 was 8.32. In test [2] (Homo sapiens, Huh-7, 72 h), this compound gave a negative-log IC50 (pIC50) of 8.16 and a pEC50 of 8.26.

As to `C=CC(=O)N[C@H]1COC[C@H]1Nc1ncc2cc(-c3c(Cl)c(OC)cc(OC)c3Cl)nc(NCCS(=O)(=O)CC)c2n1` [Example 429, N-((3R,4S)-4-((6-(2,6-dichloro-3,5-di-methoxyphenyl)-8-((2-(ethylsulfonyl)ethyl)amino)pyrido[3,4-d]pyrimidin-2-yl)amino)tetrahydrofuran-3-yl)acryl-amide], the pIC50 in test [1] is 7.65. Also, in test [2] (Homo sapiens, Huh-7, 72 h), the pIC50 was 6.73 and the pEC50 was 7.20.

For the compound `C=CC(=O)N[C@H]1CCOC[C@H]1Nc1ncc2cc(-c3c(Cl)c(OC)cc(OC)c3Cl)ccc2n1` [BLU-554], the pIC50 in test [1] is 7.74; in test [2] (Homo sapiens, Huh-7, 72 h), 6.90. In test [2] (Homo sapiens, Huh-7, 72 h), this compound gave a negative-log EC50 (pEC50) of 7.57.

As for `[2H]C([2H])([2H])Oc1cc(OC([2H])([2H])[2H])c(Cl)c(-c2cc3cnc(N[C@@H]4COC[C@@H]4NC(=O)C=C)nc3c(OCC)n2)c1Cl` [Example 754, N-((3R,4S)-4-((6-(2,6-dichloro-3,5-bis(methoxy-d3)phenyl)-8-ethoxy-pyrido[3,4-d]pyrimidin-2-yl)amino)tetra-hydrofuran-3-yl)acrylamide], the pIC50 in test [1] is 7.87. In test [2] (Homo sapiens, Huh-7, 72 h), this compound gave a pIC50 of 7.27 and a pEC50 of 7.74.
